{"source": "the NIST ThermoML archive (doi:10.1016/j.tca.2005.10.007)", "assay": "xn = mol fraction of the nth substance listed", "settings": "101 kPa, Liquid, Vibrating tube method", "note": "Numbers after ± are expanded uncertainties."}
{"smiles": "CC(O)CN", "note": "(stereo not drawn) [1-amino-2-propanol] + O", "values": [{"measurement": "mass density", "setting": "283.15 K, x2 = 0.0438", "result": "970.22 ± 0.47", "unit": "kg/m3"}, {"measurement": "mass density", "setting": "283.15 K, x2 = 0.0801", "result": "971.77 ± 0.46", "unit": "kg/m3"}, {"measurement": "mass density", "setting": "283.15 K, x2 = 0.1269", "result": "974.08 ± 0.43", "unit": "kg/m3"}, {"measurement": "mass density", "setting": "283.15 K, x2 = 0.1584", "result": "975.52 ± 0.42", "unit": "kg/m3"}, {"measurement": "mass density", "setting": "283.15 K, x2 = 0.2003", "result": "977.67 ± 0.4", "unit": "kg/m3"}, {"measurement": "mass density", "setting": "283.15 K, x2 = 0.2999", "result": "983.38 ± 0.35", "unit": "kg/m3"}, {"measurement": "mass density", "setting": "283.15 K, x2 = 0.3498", "result": "986.51 ± 0.33", "unit": "kg/m3"}, {"measurement": "mass density", "setting": "283.15 K, x2 = 0.3999", "result": "989.63 ± 0.31", "unit": "kg/m3"}, {"measurement": "mass density", "setting": "283.15 K, x2 = 0.4499", "result": "993.04 ± 0.28", "unit": "kg/m3"}, {"measurement": "mass density", "setting": "283.15 K, x2 = 0.4968", "result": "996.4 ± 0.26", "unit": "kg/m3"}, {"measurement": "mass density", "setting": "283.15 K, x2 = 0.5122", "result": "997.62 ± 0.25", "unit": "kg/m3"}, {"measurement": "mass density", "setting": "283.15 K, x2 = 0.5501", "result": "1000.3 ± 0.24", "unit": "kg/m3"}, {"measurement": "mass density", "setting": "283.15 K, x2 = 0.6001", "result": "1004.18 ± 0.21", "unit": "kg/m3"}, {"measurement": "mass density", "setting": "283.15 K, x2 = 0.6501", "result": "1007.83 ± 0.19", "unit": "kg/m3"}, {"measurement": "mass density", "setting": "283.15 K, x2 = 0.7", "result": "1011.17 ± 0.17", "unit": "kg/m3"}, {"measurement": "mass density", "setting": "283.15 K, x2 = 0.7501", "result": "1013.81 ± 0.14", "unit": "kg/m3"}, {"measurement": "mass density", "setting": "283.15 K, x2 = 0.8", "result": "1014.93 ± 0.12", "unit": "kg/m3"}, {"measurement": "mass density", "setting": "283.15 K, x2 = 0.84", "result": "1014.28 ± 0.1", "unit": "kg/m3"}, {"measurement": "mass density", "setting": "283.15 K, x2 = 0.88", "result": "1011.59 ± 0.1", "unit": "kg/m3"}, {"measurement": "mass density", "setting": "283.15 K, x2 = 0.92", "result": "1007.29 ± 0.09", "unit": "kg/m3"}, {"measurement": "mass density", "setting": "283.15 K, x2 = 0.96", "result": "1002.39 ± 0.09", "unit": "kg/m3"}, {"measurement": "mass density", "setting": "288.15 K, x2 = 0.0438", "result": "966.31 ± 0.47", "unit": "kg/m3"}, {"measurement": "mass density", "setting": "288.15 K, x2 = 0.0801", "result": "967.87 ± 0.45", "unit": "kg/m3"}, {"measurement": "mass density", "setting": "288.15 K, x2 = 0.1269", "result": "970.22 ± 0.43", "unit": "kg/m3"}, {"measurement": "mass density", "setting": "288.15 K, x2 = 0.1584", "result": "971.66 ± 0.42", "unit": "kg/m3"}, {"measurement": "mass density", "setting": "288.15 K, x2 = 0.2003", "result": "973.82 ± 0.4", "unit": "kg/m3"}, {"measurement": "mass density", "setting": "288.15 K, x2 = 0.2999", "result": "979.58 ± 0.35", "unit": "kg/m3"}, {"measurement": "mass density", "setting": "288.15 K, x2 = 0.3498", "result": "982.72 ± 0.33", "unit": "kg/m3"}, {"measurement": "mass density", "setting": "288.15 K, x2 = 0.3999", "result": "985.84 ± 0.31", "unit": "kg/m3"}, {"measurement": "mass density", "setting": "288.15 K, x2 = 0.4499", "result": "989.26 ± 0.28", "unit": "kg/m3"}, {"measurement": "mass density", "setting": "288.15 K, x2 = 0.4968", "result": "992.66 ± 0.26", "unit": "kg/m3"}, {"measurement": "mass density", "setting": "288.15 K, x2 = 0.5122", "result": "993.86 ± 0.25", "unit": "kg/m3"}, {"measurement": "mass density", "setting": "288.15 K, x2 = 0.5501", "result": "996.55 ± 0.24", "unit": "kg/m3"}, {"measurement": "mass density", "setting": "288.15 K, x2 = 0.6001", "result": "1000.45 ± 0.21", "unit": "kg/m3"}, {"measurement": "mass density", "setting": "288.15 K, x2 = 0.6501", "result": "1004.09 ± 0.19", "unit": "kg/m3"}, {"measurement": "mass density", "setting": "288.15 K, x2 = 0.7", "result": "1007.46 ± 0.17", "unit": "kg/m3"}, {"measurement": "mass density", "setting": "288.15 K, x2 = 0.7501", "result": "1010.2 ± 0.14", "unit": "kg/m3"}, {"measurement": "mass density", "setting": "288.15 K, x2 = 0.8", "result": "1011.54 ± 0.12", "unit": "kg/m3"}, {"measurement": "mass density", "setting": "288.15 K, x2 = 0.84", "result": "1011.22 ± 0.1", "unit": "kg/m3"}, {"measurement": "mass density", "setting": "288.15 K, x2 = 0.88", "result": "1009.04 ± 0.09", "unit": "kg/m3"}, {"measurement": "mass density", "setting": "288.15 K, x2 = 0.92", "result": "1005.41 ± 0.09", "unit": "kg/m3"}, {"measurement": "mass density", "setting": "288.15 K, x2 = 0.96", "result": "1001.24 ± 0.08", "unit": "kg/m3"}, {"measurement": "mass density", "setting": "293.15 K, x2 = 0.0438", "result": "962.38 ± 0.47", "unit": "kg/m3"}, {"measurement": "mass density", "setting": "293.15 K, x2 = 0.0801", "result": "963.94 ± 0.45", "unit": "kg/m3"}, {"measurement": "mass density", "setting": "293.15 K, x2 = 0.1269", "result": "966.31 ± 0.43", "unit": "kg/m3"}, {"measurement": "mass density", "setting": "293.15 K, x2 = 0.1584", "result": "967.77 ± 0.42", "unit": "kg/m3"}, {"measurement": "mass density", "setting": "293.15 K, x2 = 0.2003", "result": "969.94 ± 0.4", "unit": "kg/m3"}, {"measurement": "mass density", "setting": "293.15 K, x2 = 0.2999", "result": "975.73 ± 0.35", "unit": "kg/m3"}, {"measurement": "mass density", "setting": "293.15 K, x2 = 0.3498", "result": "978.89 ± 0.33", "unit": "kg/m3"}, {"measurement": "mass density", "setting": "293.15 K, x2 = 0.3999", "result": "982.02 ± 0.31", "unit": "kg/m3"}, {"measurement": "mass density", "setting": "293.15 K, x2 = 0.4499", "result": "985.45 ± 0.28", "unit": "kg/m3"}, {"measurement": "mass density", "setting": "293.15 K, x2 = 0.4968", "result": "988.85 ± 0.26", "unit": "kg/m3"}, {"measurement": "mass density", "setting": "293.15 K, x2 = 0.5122", "result": "990.05 ± 0.25", "unit": "kg/m3"}, {"measurement": "mass density", "setting": "293.15 K, x2 = 0.5501", "result": "992.74 ± 0.24", "unit": "kg/m3"}, {"measurement": "mass density", "setting": "293.15 K, x2 = 0.6001", "result": "996.65 ± 0.21", "unit": "kg/m3"}, {"measurement": "mass density", "setting": "293.15 K, x2 = 0.6501", "result": "1000.3 ± 0.19", "unit": "kg/m3"}, {"measurement": "mass density", "setting": "293.15 K, x2 = 0.7", "result": "1003.71 ± 0.17", "unit": "kg/m3"}, {"measurement": "mass density", "setting": "293.15 K, x2 = 0.7501", "result": "1006.54 ± 0.14", "unit": "kg/m3"}, {"measurement": "mass density", "setting": "293.15 K, x2 = 0.8", "result": "1008.08 ± 0.12", "unit": "kg/m3"}, {"measurement": "mass density", "setting": "293.15 K, x2 = 0.84", "result": "1008.08 ± 0.1", "unit": "kg/m3"}, {"measurement": "mass density", "setting": "293.15 K, x2 = 0.88", "result": "1006.38 ± 0.09", "unit": "kg/m3"}, {"measurement": "mass density", "setting": "293.15 K, x2 = 0.92", "result": "1003.37 ± 0.08", "unit": "kg/m3"}, {"measurement": "mass density", "setting": "293.15 K, x2 = 0.96", "result": "999.86 ± 0.07", "unit": "kg/m3"}, {"measurement": "mass density", "setting": "298.15 K, x2 = 0.0438", "result": "958.41 ± 0.47", "unit": "kg/m3"}, {"measurement": "mass density", "setting": "298.15 K, x2 = 0.0801", "result": "959.99 ± 0.45", "unit": "kg/m3"}, {"measurement": "mass density", "setting": "298.15 K, x2 = 0.1269", "result": "962.38 ± 0.43", "unit": "kg/m3"}, {"measurement": "mass density", "setting": "298.15 K, x2 = 0.1584", "result": "963.84 ± 0.42", "unit": "kg/m3"}, {"measurement": "mass density", "setting": "298.15 K, x2 = 0.2003", "result": "966.03 ± 0.4", "unit": "kg/m3"}, {"measurement": "mass density", "setting": "298.15 K, x2 = 0.2999", "result": "971.85 ± 0.35", "unit": "kg/m3"}, {"measurement": "mass density", "setting": "298.15 K, x2 = 0.3498", "result": "975.02 ± 0.33", "unit": "kg/m3"}, {"measurement": "mass density", "setting": "298.15 K, x2 = 0.3999", "result": "978.16 ± 0.3", "unit": "kg/m3"}, {"measurement": "mass density", "setting": "298.15 K, x2 = 0.4499", "result": "981.59 ± 0.28", "unit": "kg/m3"}, {"measurement": "mass density", "setting": "298.15 K, x2 = 0.4968", "result": "985 ± 0.26", "unit": "kg/m3"}, {"measurement": "mass density", "setting": "298.15 K, x2 = 0.5122", "result": "986.21 ± 0.25", "unit": "kg/m3"}, {"measurement": "mass density", "setting": "298.15 K, x2 = 0.5501", "result": "988.89 ± 0.24", "unit": "kg/m3"}, {"measurement": "mass density", "setting": "298.15 K, x2 = 0.6001", "result": "992.81 ± 0.21", "unit": "kg/m3"}, {"measurement": "mass density", "setting": "298.15 K, x2 = 0.6501", "result": "996.47 ± 0.19", "unit": "kg/m3"}, {"measurement": "mass density", "setting": "298.15 K, x2 = 0.7", "result": "999.92 ± 0.16", "unit": "kg/m3"}]}
